Data from US10286038B2, “Lysosome membrane protein 2 (LIMP-2) based peptides and related uses” (Northwestern University, priority 2016, dated 2019).

Assays:
recombinant GC = target: T1, recombinant GC (Homo sapiens, UniProt P04062, R534H); assay: stabilization assay of recombinant GC at 37° C.; type: biochemical; settings: recombinant GC incubated with peptide at 37° C.
T1 construct: purchased Genzyme Therapeutics, Boston, USA
T1 sequence (P04062 40-536 R534H): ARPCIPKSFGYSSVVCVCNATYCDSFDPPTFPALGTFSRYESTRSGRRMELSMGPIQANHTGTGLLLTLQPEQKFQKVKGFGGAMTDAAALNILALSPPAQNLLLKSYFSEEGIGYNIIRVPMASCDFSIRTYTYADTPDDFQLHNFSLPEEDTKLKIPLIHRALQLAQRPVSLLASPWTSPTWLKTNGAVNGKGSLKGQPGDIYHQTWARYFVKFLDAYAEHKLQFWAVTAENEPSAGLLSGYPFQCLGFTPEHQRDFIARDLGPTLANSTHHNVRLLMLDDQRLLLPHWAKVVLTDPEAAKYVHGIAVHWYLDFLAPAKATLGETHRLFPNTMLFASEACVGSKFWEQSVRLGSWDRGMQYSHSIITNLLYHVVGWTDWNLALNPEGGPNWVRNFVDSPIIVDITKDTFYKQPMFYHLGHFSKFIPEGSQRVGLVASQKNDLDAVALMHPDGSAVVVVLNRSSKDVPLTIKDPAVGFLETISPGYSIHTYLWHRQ
Method: Proteins were visualized by coomassie staining (CBB). […] See also FIG. 6.
To address the functional impact of the observed interaction between the helix 5 peptide and recombinant GC, we measured GC activity in the presence of a one- to tenfold molar excess of the helix 5 peptide. […] No effect on enzymatic activity after incubation with the helix 5 peptide or the LIMP-2 ectodomain could be found for recombinant α-mannosidase (LAMAN) further emphasizing the specificity of the helix 5 peptide on GC activity (FIG. 6E). […] To analyze if the increase in GC activity is due to stabilization of the enzyme, recombinant GC was incubated with the helix 5 and the control peptide at 37° C. and the activity of GC was measured at regular intervals (FIG. 3F).

[1] = target: T2, recombinant GC (Cerezyme) (Homo sapiens, UniProt P04062, R534H); assay: recombinant GC activity assay; type: biochemical; settings: tenfold molar excess of peptide, acid pH, relative to buffer control
T2 construct: purchased Genzyme Therapeutics, Boston, USA
T2 sequence (P04062 40-536 R534H): T1 sequence (P04062 40-536 R534H)
Method: (§1) Expression plasmids of LIMP-2 and human GC constructs were generated as described previously (1). For Western blotting nitrocellulose or PVDF membranes were used. EndoH/PNGaseF digests were performed according to manufacturer's instructions (New England Biolabs, Ipswich, USA). For co-immunoprecipitation experiments magnetic agarose G beads (Thermo Fisher Scientific, Waltham, USA) were utilized. Immunofluorescence studies were performed in cells as previously described (1, 3). Cellular co-localization of two proteins was determined by the Pearson's Index (35). Enzyme activity assays of cell lysates or recombinant protein were measured at acid pH using absorbent and fluorescent artificial substrates. For peptide studies, peptides were N-terminally tagged with biotin. If not stated otherwise, recombinant enzyme was incubated with a tenfold higher molarity of peptides. Conditions for pulldown experiments were kept at neutral pH. Protein modelling, molecular analyses, graphics and animations were performed with the UCSF Chimera package.
To determine the enzymatic activity of the recombinant enzymes, lyophilized enzymes were reconstituted in the NaPi buffer described above. The lyophilized samples of wild-type GC (Cerezyme®) and the custom-made recombinant N307S mutant enzyme contain 0.01% polysorbate 80 (Tween 80) (see prescription information for Cerezyme® at the website for Cerezyme®). As indicated in our experiments, the concentration of the detergent is sufficient to support active GC enzyme and to perform the in vitro GC activity assays without adding further detergents to the reaction mix. For enzyme activity assays of recombinant proteins, 0.1-0.2 nmol of GC (Cerezyme®; N370S) and LAMAN were used in the absence or presence of 10× the molar amount of LIMP-2-derived peptides (Table 1) or LIMP-2 ectodomain (1-2 nmol) (Table 3).
All activity assays were performed at acid pH.

[2] = target: T2, recombinant GC (Cerezyme); assay: peptide pulldown of recombinant GC; type: binding; settings: biotinylated peptide, tenfold molar amount, neutral pH, streptavidin beads
Method: as §1
All peptides were purchased from jpt Peptide Technologies (Berlin, GER). […] The concentration of the peptides as well as the recombinant proteins was determined spectroscopically (Nanodrop 2000c; Thermo Fisher Scientific, Waltham, USA). […]

[3] = tested on: endogenous GC in Cos 7 cells; settings: biotinylated peptide, neutral pH
Method: For pulldown of endogenous and overexpressed GC from N2a cell lysates 20 nmol of LIMP-2-derived peptide (Helix 5 and 3×D) was incubated with 50 μl cell lysate at 4° C. overnight. The cells were harvested in EBC-buffer (Table 3). After blocking and equilibration of the streptavidin beads (see above) the cell lysate/peptide mixtures were added to the beads for 30 min. at room temperature. The supernatant was removed. After extensive washing of the beads with NaPhosphate buffer, the bound peptides and proteins were released from the beads by incubation with Laemmli buffer (see above). After centrifugation for 2 min. at 17,000×g the supernatant was removed (BOUND fraction) and subjected to SDS-Page and Western-blotting. An antibody against human GC (α-hGC, for details see Table 4) was used for detection.

For “Biotin-Ttds-LREDDEAMDKAYQQKLFVTHTVDE [3×D control peptide, reference compound]”, the “time to complete loss of GC enzymatic activity” value (recombinant GC) was at most 72 h, the “increase of recombinant GC enzyme activity” value (“increase” below) [1] was “did not increase” and the “co-precipitation of recombinant GC” value [2] was “only the wild-type helix 5 peptide specifically co-precipitated”. For the same substance, the “co-precipitation of endogenous GC from cellular lysates” value [3] was “only the wild-type helix 5 peptide specifically co-precipitated”.
With “KRVQDVIERFWDFIDQLSINTFGK [random helical control peptide, reference compound]” the “increase” value [1] was “not able to increase”.
In the case of “Biotin-Ttds-KFERQLREDDEAMDKAYQQKLFVTHTVDEYGRKKRRQRRR [control 3×D TAT-peptide, reference compound]”, the “increase” value [1] is reported as “comparable effect”.
